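48-hour exposure; five concentrations; linearly interpolated endpoints. Definition used: TGI = concentration required for complete inhibition of growth.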
Key:
Experiment in all cases: growth of human tumour cells (NCI), 48 h
K-562 leukemia = tested on: K-562 leukemia
COLO 205 colon = tested on: COLO 205 colon
LOX IMVI melanoma = tested on: LOX IMVI melanoma
SF-268 CNS = tested on: SF-268 CNS
RPMI-8226 leukemia = tested on: RPMI-8226 leukemia
OVCAR-3 ovarian = tested on: OVCAR-3 ovarian
UACC-257 melanoma = tested on: UACC-257 melanoma
SF-539 CNS = tested on: SF-539 CNS
PC-3 prostate = tested on: PC-3 prostate
TK-10 renal = tested on: TK-10 renal
HOP-92 NSCLC = tested on: HOP-92 NSCLC
UO-31 renal = tested on: UO-31 renal
MDA-N = tested on: MDA-N
NCI-H226 lung = tested on: NCI-H226 lung
KM12 colon = tested on: KM12 colon
MDA-MB-231 breast = tested on: MDA-MB-231 breast
OVCAR-8 ovarian = tested on: OVCAR-8 ovarian
MALME-3M melanoma = tested on: MALME-3M melanoma
HCT-15 colon = tested on: HCT-15 colon
UACC-62 melanoma = tested on: UACC-62 melanoma
SK-MEL-2 melanoma = tested on: SK-MEL-2 melanoma
MCF7 breast = tested on: MCF7 breast
M14 melanoma = tested on: M14 melanoma
MDA-MB-435 = tested on: MDA-MB-435
NCI-H23 lung = tested on: NCI-H23 lung
CCRF-CEM leukemia = tested on: CCRF-CEM leukemia
BT-549 breast = tested on: BT-549 breast
786-0 renal = tested on: 786-0 renal
SR leukemia = tested on: SR leukemia
HOP-62 NSCLC = tested on: HOP-62 NSCLC
ACHN renal = tested on: ACHN renal
SN12C renal = tested on: SN12C renal
NCI-H522 lung = tested on: NCI-H522 lung
EKVX NSCLC = tested on: EKVX NSCLC
CAKI-1 renal = tested on: CAKI-1 renal
RXF 393 renal = tested on: RXF 393 renal
SK-OV-3 ovarian = tested on: SK-OV-3 ovarian
HCC-2998 colon = tested on: HCC-2998 colon
SK-MEL-28 melanoma = tested on: SK-MEL-28 melanoma
A498 renal = tested on: A498 renal
OVCAR-4 ovarian = tested on: OVCAR-4 ovarian
SK-MEL-5 melanoma = tested on: SK-MEL-5 melanoma
SW-620 colon = tested on: SW-620 colon
SF-295 CNS = tested on: SF-295 CNS
HL-60(TB) leukemia = tested on: HL-60(TB) leukemia
SNB-19 CNS = tested on: SNB-19 CNS
OVCAR-5 ovarian = tested on: OVCAR-5 ovarian
IGROV1 ovarian = tested on: IGROV1 ovarian
HS 578T breast = tested on: HS 578T breast
NCI/ADR-RES ovarian = tested on: NCI/ADR-RES ovarian
HT29 colon = tested on: HT29 colon
NCI-H460 lung = tested on: NCI-H460 lung
HCT-116 colon = tested on: HCT-116 colon
A549 NSCLC = tested on: A549 NSCLC
DU-145 prostate = tested on: DU-145 prostate
U251 CNS = tested on: U251 CNS
T-47D breast = tested on: T-47D breast
SNB-75 CNS = tested on: SNB-75 CNS

In the case of COc1ccc(NC(=S)N/N=C(\c2ccccc2)c2ccccn2)cc1, the TGI (K-562 leukemia) is reported as 3.06 µM, the TGI (COLO 205 colon) is reported as 30.3 µM and the TGI (LOX IMVI melanoma) is reported as 18.4 µM. It also gave a TGI (SF-268 CNS) of 14.8 µM, a TGI (RPMI-8226 leukemia) of over 20.6 µM and a TGI (OVCAR-3 ovarian) of 13.2 µM. For the same molecule, the TGI (UACC-257 melanoma) was 2.44 µM, the TGI (SF-539 CNS) was 3.03 µM and the TGI (PC-3 prostate) was 17.6 µM. The TGI (TK-10 renal) was 2.27 µM, the TGI (HOP-92 NSCLC) was 9.87 µM and the TGI (UO-31 renal) was 8.73 µM. It also gave a TGI (MDA-N) of 16.2 µM, a TGI (NCI-H226 lung) of 2.61 µM and a TGI (KM12 colon) of 15.9 µM. The TGI (MDA-MB-231 breast) was 14.4 µM, the TGI (OVCAR-8 ovarian) was 11.7 µM and the TGI (MALME-3M melanoma) was 11 µM. For the same molecule, the TGI (HCT-15 colon) was 15 µM, the TGI (UACC-62 melanoma) was 10.2 µM and the TGI (SK-MEL-2 melanoma) was 14.1 µM. It also gave a TGI (MCF7 breast) of 0.703 µM, a TGI (M14 melanoma) of 2.61 µM and a TGI (MDA-MB-435) of 16.9 µM. The TGI (NCI-H23 lung) was 16.4 µM, the TGI (CCRF-CEM leukemia) was over 40.1 µM and the TGI (BT-549 breast) was 20.2 µM. It also gave a TGI (786-0 renal) of 11.2 µM, a TGI (SR leukemia) of 5.57 µM and a TGI (HOP-62 NSCLC) of 5.33 µM. For the same molecule, the TGI (ACHN renal) was 10.5 µM, the TGI (SN12C renal) was 7.24 µM and the TGI (NCI-H522 lung) was 15.3 µM. It also gave a TGI (EKVX NSCLC) of 2.65 µM, a TGI (CAKI-1 renal) of 10.5 µM and a TGI (RXF 393 renal) of 15.7 µM. For the same molecule, the TGI (SK-OV-3 ovarian) was 16 µM, the TGI (HCC-2998 colon) was 22.3 µM and the TGI (SK-MEL-28 melanoma) was 18.5 µM. For the same molecule, the TGI (A498 renal) was 16 µM, the TGI (OVCAR-4 ovarian) was 16.9 µM and the TGI (SK-MEL-5 melanoma) was 6.53 µM. The TGI (SW-620 colon) was 20.2 µM, the TGI (SF-295 CNS) was 9.59 µM and the TGI (HL-60(TB) leukemia) was 1.9 µM. It also gave a TGI (SNB-19 CNS) of 18.5 µM, a TGI (OVCAR-5 ovarian) of 6.5 µM and a TGI (IGROV1 ovarian) of 17.2 µM. It also gave a TGI (HS 578T breast) of 56.8 µM, a TGI (NCI/ADR-RES ovarian) of 23.8 µM and a TGI (HT29 colon) of 23.6 µM. For the same molecule, the TGI (NCI-H460 lung) was 6.47 µM, the TGI (HCT-116 colon) was 13.7 µM and the TGI (A549 NSCLC) was 14.2 µM. It also gave a TGI (DU-145 prostate) of 11.2 µM, a TGI (U251 CNS) of 27.1 µM and a TGI (T-47D breast) of 13.6 µM.

With COC(=O)C1(CCC(=O)N(C)c2ccccc2)NNC2C(=O)N(c3ccccc3)C(=O)C21 (centres undefined) the TGI (COLO 205 colon) was over 10 µM, the TGI (LOX IMVI melanoma) was over 10 µM and the TGI (SF-268 CNS) was over 10 µM. It also gave a TGI (RPMI-8226 leukemia) of over 10 µM, a TGI (OVCAR-3 ovarian) of over 10 µM and a TGI (UACC-257 melanoma) of over 10 µM. For the same molecule, the TGI (SF-539 CNS) was over 10 µM, the TGI (PC-3 prostate) was over 10 µM and the TGI (TK-10 renal) was over 10 µM. For the same molecule, the TGI (HOP-92 NSCLC) was over 10 µM, the TGI (UO-31 renal) was over 10 µM and the TGI (MDA-N) was over 10 µM. It also gave a TGI (NCI-H226 lung) of over 10 µM, a TGI (KM12 colon) of over 10 µM and a TGI (MDA-MB-231 breast) of over 10 µM. For the same molecule, the TGI (OVCAR-8 ovarian) was over 10 µM, the TGI (MALME-3M melanoma) was over 10 µM and the TGI (HCT-15 colon) was over 10 µM. For the same molecule, the TGI (UACC-62 melanoma) was over 10 µM, the TGI (SK-MEL-2 melanoma) was over 10 µM and the TGI (MCF7 breast) was over 10 µM. For the same molecule, the TGI (SNB-75 CNS) was over 10 µM, the TGI (M14 melanoma) was over 10 µM and the TGI (MDA-MB-435) was over 10 µM. It also gave a TGI (NCI-H23 lung) of over 10 µM, a TGI (CCRF-CEM leukemia) of over 10 µM and a TGI (BT-549 breast) of over 10 µM. It also gave a TGI (786-0 renal) of over 10 µM, a TGI (SR leukemia) of over 10 µM and a TGI (HOP-62 NSCLC) of over 10 µM. For the same molecule, the TGI (ACHN renal) was over 10 µM, the TGI (SN12C renal) was over 10 µM and the TGI (NCI-H522 lung) was over 10 µM. For the same molecule, the TGI (EKVX NSCLC) was over 10 µM, the TGI (CAKI-1 renal) was over 10 µM and the TGI (RXF 393 renal) was over 10 µM. It also gave a TGI (SK-OV-3 ovarian) of over 10 µM, a TGI (HCC-2998 colon) of over 10 µM and a TGI (SK-MEL-28 melanoma) of over 10 µM. For the same molecule, the TGI (A498 renal) was over 10 µM, the TGI (OVCAR-4 ovarian) was over 10 µM and the TGI (SK-MEL-5 melanoma) was over 10 µM. For the same molecule, the TGI (SW-620 colon) was over 10 µM, the TGI (SF-295 CNS) was over 10 µM and the TGI (HL-60(TB) leukemia) was over 10 µM. It also gave a TGI (SNB-19 CNS) of over 10 µM, a TGI (OVCAR-5 ovarian) of over 10 µM and a TGI (IGROV1 ovarian) of over 10 µM. For the same molecule, the TGI (HS 578T breast) was over 10 µM, the TGI (NCI/ADR-RES ovarian) was over 10 µM and the TGI (HT29 colon) was over 10 µM. The TGI (NCI-H460 lung) was over 10 µM, the TGI (HCT-116 colon) was over 10 µM and the TGI (A549 NSCLC) was over 10 µM. The TGI (DU-145 prostate) was over 10 µM, the TGI (U251 CNS) was over 10 µM and the TGI (T-47D breast) was over 10 µM.
